In patent US10005768B2, “Carboxamide derivatives and use thereof” (Purdue Pharma L.P., priority 2013, dated 2018):

Biological target: human Nav1.7 (Homo sapiens (Human), UniProt Q15858)
Assay: FLIPR sodium dye assay (CoroNa Green AM Na+ dye, primary fluorescence assay)
Format: cell-based
Settings: recombinant Nav1.7/HEK293 cells
Procedure: In vitro assays were performed in a recombinant cell line expressing cDNA encoding the alpha subunit (Nav1.7, SCN9a, PN1, NE) of human Nav1.7 (Accession No. NM_002977). The cell line was provided by investigators at Yale University (Cummins et al, J. Neurosci. 18(23): 9607-9619 (1998)). For dominant selection of the Nav1.7-expressing clones, the expression plasmid co-expressed the neomycin resistance gene. The cell line was constructed in the human embryonic kidney cell line, HEK293, under the influence of the CMV […] promoter, and stable clones were selected using limiting dilution cloning and antibiotic selection using the neomycin analogue, G418. Recombinant beta and gamma subunits were not introduced into this cell line. Additional cell lines expressing recombinant Nav1.7 cloned from other species can also be used, alone or in combination with various beta subunits, gamma subunits or chaperones.
Unless otherwise noted, cell culture reagents were purchased from Mediatech of Herndon, Va. The recombinant Nav1.7/HEK293 cells were routinely cultured in growth medium consisting of Dulbecco's […] essential medium containing 10% fetal bovine serum (FBS, Hyclone, Thermo Fisher Scientific, Logan, Utah), 100 U/mL penicillin, 100 μg/mL streptomycin, 2-4 mM L-glutamine, and […] G418. For natural, non-recombinant cell lines, the selective antibiotic was omitted, and additional media formulations can be applied as needed.
The final buffer consisted of 20 mM Hepes, pH 7.3, 1.261 mM CaCl2, 0.493 mM MgCl2, 0.407 mM Mg(SO)4, 5.33 mM KCl, 0.441 mM KH2PO4, 137 mM NaCl, 0.336 mM Na2HPO4 and […] D-glucose (Hanks et al., Proc. Soc. Exp. Biol. Med. 71:196 (1949)), and the simple formulation was typically the basic buffer throughout the assay (i.e., all wash and addition steps).
The fluorescence indicator used in the primary fluorescence assay was the cell permeant version of CoroNa™ Green (Invitrogen, Molecular Probes, Eugene, Oreg.), a dye that emits light in the fluorescence range (Harootunian et al., J. Biol. Chem. 264(32):19458-19467 (1989)). The intensity of this emission, but not the wavelength range, is increased when the dye is exposed to Na^+ ions, which it can bind with partial selectivity. Cells expressing Nav1.7 or other sodium channels were loaded with the CoroNa™ Green dye immediately in advance of the fluorescence assay, and then, after agonist stimulation, the mobilization of Na^+ ions was detected as the Na^+ ions flowed from the extracellular fluid into the cytoplasm through the activated sodium channel pores. The dye was stored in the dark as a lyophilized powder, and then an aliquot was dissolved immediately before the cell loading procedure, according to the instructions of the manufacturer, to a stock concentration of 10 mM in DMSO. It was then diluted in the assay buffer to a 4× concentrated working solution, so that the final concentration of dye in the cell loading buffer was 5 μM.
In the fluorescence assays, two agonists were used in combination, namely 1) veratridine; and 2) the venom from the yellow scorpion, Leiurus quinquestriatus hebraeus. Veratridine is an alkaloid small molecule that facilitates the capture of channel openings by inhibiting inactivation, and the scorpion venom is a natural preparation that includes peptide toxins selective for different subsets of voltage-gated sodium channels. These scorpion toxins inhibit the fast inactivation of their cognate target channels. Stock solutions of the agonists were prepared to 40 mM in DMSO (veratridine) and 1 mg/mL in dH2O (scorpion venom), and then diluted to make a 4× or 2× stock (depending on the particular assay) in assay buffer, the final concentration being 100 μM (veratridine) and 10 μg/mL (scorpion venom). Both of the agonists were purchased from Sigma Aldrich, St. Louis, Mo.
Test compounds were dissolved in DMSO to yield 10 mM stock solutions. […]

human Nav1.7, sequence (Q15858 other isoform, or with tags, fused parts or gaps): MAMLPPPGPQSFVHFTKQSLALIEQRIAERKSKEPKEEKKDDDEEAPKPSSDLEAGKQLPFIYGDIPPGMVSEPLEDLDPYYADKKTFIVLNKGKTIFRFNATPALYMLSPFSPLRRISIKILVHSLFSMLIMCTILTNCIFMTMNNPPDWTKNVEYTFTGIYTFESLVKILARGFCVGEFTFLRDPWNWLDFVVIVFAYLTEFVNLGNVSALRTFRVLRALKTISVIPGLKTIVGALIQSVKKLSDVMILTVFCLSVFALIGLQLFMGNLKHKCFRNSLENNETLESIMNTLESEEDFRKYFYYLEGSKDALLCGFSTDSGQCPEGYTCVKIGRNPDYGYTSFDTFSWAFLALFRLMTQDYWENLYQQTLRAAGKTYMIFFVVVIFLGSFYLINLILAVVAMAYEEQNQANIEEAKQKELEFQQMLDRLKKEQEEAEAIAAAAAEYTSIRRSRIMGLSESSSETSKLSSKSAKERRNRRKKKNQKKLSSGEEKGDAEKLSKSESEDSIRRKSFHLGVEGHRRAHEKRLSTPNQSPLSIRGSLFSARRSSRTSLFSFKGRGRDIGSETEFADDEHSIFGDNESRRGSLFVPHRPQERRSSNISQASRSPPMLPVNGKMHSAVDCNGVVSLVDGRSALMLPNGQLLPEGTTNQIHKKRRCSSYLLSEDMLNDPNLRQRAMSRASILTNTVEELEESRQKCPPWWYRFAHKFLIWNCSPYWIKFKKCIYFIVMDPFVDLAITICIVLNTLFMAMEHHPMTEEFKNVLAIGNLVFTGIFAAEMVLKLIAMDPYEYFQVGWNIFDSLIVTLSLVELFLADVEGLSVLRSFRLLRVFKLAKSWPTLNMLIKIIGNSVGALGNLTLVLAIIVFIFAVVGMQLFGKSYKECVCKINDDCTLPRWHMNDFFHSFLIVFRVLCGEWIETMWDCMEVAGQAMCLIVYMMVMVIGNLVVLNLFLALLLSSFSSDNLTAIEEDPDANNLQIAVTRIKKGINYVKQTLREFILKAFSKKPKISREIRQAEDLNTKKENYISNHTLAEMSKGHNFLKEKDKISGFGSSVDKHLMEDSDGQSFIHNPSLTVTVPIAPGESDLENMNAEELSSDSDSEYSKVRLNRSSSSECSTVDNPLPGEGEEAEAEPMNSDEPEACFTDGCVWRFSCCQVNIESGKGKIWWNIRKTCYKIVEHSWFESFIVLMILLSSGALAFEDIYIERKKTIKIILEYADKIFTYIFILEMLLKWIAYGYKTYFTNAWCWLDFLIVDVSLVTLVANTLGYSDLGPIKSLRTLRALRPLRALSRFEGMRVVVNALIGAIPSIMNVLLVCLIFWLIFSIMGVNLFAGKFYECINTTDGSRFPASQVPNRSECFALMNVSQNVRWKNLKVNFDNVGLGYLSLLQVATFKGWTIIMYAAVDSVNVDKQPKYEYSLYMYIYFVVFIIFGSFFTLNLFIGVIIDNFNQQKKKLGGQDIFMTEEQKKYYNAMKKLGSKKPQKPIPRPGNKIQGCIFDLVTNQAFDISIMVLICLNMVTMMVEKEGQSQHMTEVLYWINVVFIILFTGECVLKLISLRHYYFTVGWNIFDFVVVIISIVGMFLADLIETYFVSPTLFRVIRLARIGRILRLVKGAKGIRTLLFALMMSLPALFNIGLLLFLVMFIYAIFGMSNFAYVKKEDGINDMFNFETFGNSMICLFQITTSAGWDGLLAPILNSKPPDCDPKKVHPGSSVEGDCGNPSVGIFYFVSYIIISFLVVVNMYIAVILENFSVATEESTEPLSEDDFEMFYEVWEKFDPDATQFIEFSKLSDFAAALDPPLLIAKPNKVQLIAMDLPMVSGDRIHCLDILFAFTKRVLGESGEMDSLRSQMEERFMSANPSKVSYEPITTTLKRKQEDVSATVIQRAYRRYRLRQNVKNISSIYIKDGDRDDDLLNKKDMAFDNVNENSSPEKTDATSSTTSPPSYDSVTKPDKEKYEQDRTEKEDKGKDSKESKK

Row | Compound | IC50 [µM]
1 | NC(=O)c1cccc(-c2ccc(Oc3ccc(C(F)(F)F)cc3CN3CCC[C@@H]3CO)cc2)n1 [compound 42, (R)-6-(4-(2-((2-(hydroxyl-methyl)pyrrolidin-1-yl)methyl)-4-(trifluoromethyl)phenoxy)phenyl) picolinamide] | 1.17 ± 0.186
2 | Cn1nccc1-c1cc(C#N)ccc1Oc1ccc(-c2cccc(C(N)=O)n2)cc1 [compound 22, 6-(4-(4-cyano-2-(1-methyl-1H-pyrazol-5-yl)phenoxy)phenyl) picolinamide] | 0.285 ± 0.009
3 | NC(=O)c1cccc(-c2ccc(Oc3ccc(C(F)(F)F)c(CN4CC(N)C4)c3)cc2)n1 [compound 62, 6-(4-(3-((3-aminoazetidin-1-yl)methyl)-4-(trifluoromethyl)phenoxy)phenyl) picolinamide] | 0.31 ± 0.066
4 | NC(=O)c1cccc(-c2ccc(Oc3ccc(C(F)(F)F)cc3CN3CCC[C@H]3C(N)=O)cc2)n1 [compound 44, (S)-6-(4-(2-((2-carbamoyl-pyrrolidin-1-yl)methyl)-4-(trifluoromethyl)phenoxy)phenyl) picolinamide] | 1.16 ± 0.076
5 | Cn1cc(-c2cc(C#N)ccc2Oc2ccc(-c3cccc(C(N)=O)n3)cc2)cn1 [compound 21, 6-(4-(4-cyano-2-(1-methyl-1H-pyrazol-4-yl)phenoxy)phenyl)-picolinamide] | 0.564 ± 0.035
6 | COc1ccc(-c2cc(C#N)ccc2Oc2ccc(-c3cccc(C(N)=O)n3)cc2)cn1 [compound 20, 6-(4-(4-cyano-2-(6-methoxypyridin-3-yl)phenoxy)phenyl)picolinamide] | 0.124 ± 0.016
7 | NC(=O)c1cccc(-c2ccc(Oc3ccc(C(F)(F)F)c(CN4CCC4)c3)cc2)n1 [compound 53, 6-(4-(3-(azetidin-1-ylmethyl)-4-(trifluoromethyl)phenoxy)phenyl) picolinamide] | 0.384 ± 0.106
8 | NC(=O)c1cccc(-c2ccc(Oc3ccc(C(F)(F)F)cc3CN3CCC[C@H]3CO)cc2)n1 [compound 41, (S)-6-(4-(2-((2-(hydroxyl-methyl)pyrrolidin-1-yl)methyl)-4-(trifluoromethyl)phenoxy)phenyl) picolinamide] | 1.13 ± 0.1
9 | NCC(O)c1cc(C(F)(F)F)ccc1Oc1ccc(-c2cccc(C(N)=O)n2)cc1 (stereo not drawn) [compound 64, 6-(4-(2-(2-amino-1-hydroxy-ethyl)-4-(trifluoromethyl)-phenoxy)phenyl)picolinamide] | 2.14 ± 0.199
10 | NC(=O)c1cccc(-c2ccc(Oc3ccc(C(F)(F)F)cc3CN3CC[C@H](O)C3)cc2)n1 [compound 36, (S)-6-(4-(2-((3-hydroxypyrrolidin-1-yl)methyl)-4-(trifluoromethyl)-phenoxy)phenyl)picolinamide] | 0.432 ± 0.131
11 | COc1ncccc1-c1cc(C#N)ccc1Oc1ccc(-c2cccc(C(N)=O)n2)cc1 [compound 24, 6-(4-(4-cyano-2-(2-methoxypyridin-3-yl)phenoxy)phenyl)picolinamide] | 0.152 ± 0.031
12 | CN1CCN(Cc2cc(C(F)(F)F)ccc2Oc2ccc(-c3cccc(C(N)=O)n3)cc2)CC1 [compound 33, 6-(4-(2-((4-methylpiperazin-1-yl)methyl)-4-(trifluoromethyl)-phenoxy)phenyl)picolinamide] | 0.221 ± 0.049
13 | CN(C)CCN(C)Cc1cc(C(F)(F)F)ccc1Oc1ccc(-c2cccc(C(N)=O)n2)cc1 [compound 37, 6-(4-(2-(((2-(dimethylamino)-ethyl)(methyl)amino)methyl)-4-(trifluoromethyl)phenoxy)-phenyl)picolinamide] | 1.07 ± 0.117
14 | NC(=O)c1cccc(-c2ccc(Oc3ccc(C(F)(F)F)cc3CN3CCNC(=O)C3)cc2)n1 [compound 35, 6-(4-(2-((3-oxopiperazin-1-yl)methyl)-4-(trifluoromethyl)-phenoxy)phenyl)picolinamide] | 0.141 ± 0.022
15 | CN(CCO)Cc1cc(C(F)(F)F)ccc1Oc1ccc(-c2cccc(C(N)=O)n2)cc1 [compound 52, 6-(4-(2-(((2-hydroxyethyl)-(methyl)amino)methyl)-4-(trifluoromethyl)phenoxy)phenyl) picolinamide] | 1.1 ± 0.107
16 | CN(C)CCCNCc1cc(C(F)(F)F)ccc1Oc1ccc(-c2cccc(C(N)=O)n2)cc1 [compound 38, 6-(4-(2-(((3-(dimethylamino)-propyl)amino)methyl)-4-(trifluoromethyl)phenoxy)phenyl) picolinamide] | 1.69 ± 0.157
17 | N#Cc1ccc(Oc2ccc(-c3cccc(C(N)=O)n3)cc2)cc1-c1cccnc1 [compound 27, 6-(4-(4-cyano-3-(pyridin-3-yl)phenoxy)phenyl)picolinamide] | 0.549 ± 0.085

Results, then the molecule that gave them:

Row | IC50 [µM] | Compound
18 | 0.59 ± 0.092 | CCN(CCO)Cc1cc(C(F)(F)F)ccc1Oc1ccc(-c2cccc(C(N)=O)n2)cc1 [compound 119, 6-(4-(2-((ethyl(2-hydroxyethyl)amino)methyl)-4-(trifluoromethyl)phenoxy)phenyl) picolinamide]
19 | 2.71 ± 0.235 | NC(=O)c1cccc(-c2ccc(Oc3ccc(C(F)(F)F)cc3C(=O)C(=O)N3CCCC3)cc2)n1 [compound 157, 6-(4-(2-(2-oxo-2-(pyrrolidin-1-yl)acetyl)-4-(trifluoromethyl)-phenoxy)phenyl)picolinamide]
20 | 0.143 ± 0.023 | CCN(CC)C(=O)c1cc(C(F)(F)F)ccc1Oc1ccc(-c2cccc(C(N)=O)n2)cc1 [compound 164, 6-(4-(2-(diethylcarbamoyl)-4-(trifluoromethyl)phenoxy)phenyl) picolinamide]
21 | 1.26 ± 0.135 | NC(=O)c1cccc(-c2ccc(Oc3ccc(C(F)(F)F)cc3C(=O)O)cc2)n1 [compound 159, 2-(4-(6-carbamoylpyridin-2-yl)phenoxy)-5-(trifluoro-methyl)benzoic acid]
22 | 0.71 ± 0.0008 | NC(=O)c1cccc(-c2ccc(Oc3ccc(C(F)(F)F)cc3C(C(N)=O)N3CCCC3)cc2)n1 (stereo not drawn) [compound 81, 6-(4-(2-(2-amino-2-oxo-1-(pyrrolidin-1-yl)ethyl)-4-(trifluoromethyl)phenoxy)phenyl) picolinamide]
23 | 0.214 ± 0.029 | NC(=O)c1cccc(-c2ccc(Oc3ccc(C(F)(F)F)cc3C(O)C(=O)N3CCCC3)cc2)n1 (stereo not drawn) [compound 158, 6-(4-(2-(1-hydroxy-2-oxo-2-(pyrrolidin-1-yl)ethyl)-4-(trifluoromethyl)phenoxy)phenyl) picolinamide]
24 | > 20 | NC(=O)c1cccc(-c2ccc(Oc3ccc(C(F)(F)F)cc3/C=C3\SC(=O)NC3=O)cc2)n1 [compound 155, (Z)-6-(4-(2-((2,4-dioxothiazolidin-5-ylidene)methyl)-4-(trifluoromethyl)phenoxy)phenyl) picolinamide]
25 | > 20 | NC(=O)c1cccc(-c2ccc(Oc3ccc(F)cc3)c(COc3ccc(Cl)cc3I)c2)n1 [compound 94, 6-(3-((4-chloro-2-iodophenoxy)methyl)-4-(4-fluorophenoxy)phenyl) picolinamide]
26 | 0.716 ± 0.09 | NC(=O)c1cccc(-c2ccc(Oc3ccc(C(F)(F)F)cc3CN3CCCC(C(N)=O)C3)cc2)n1 (stereo not drawn) [compound 121, 6-(4-(2-((3-carbamoylpiperidin-1-yl)methyl)-4-(trifluoromethyl)phenoxy)phenyl) picolinamide]
27 | 0.961 ± 0.07 | NC(=O)c1cccc(-c2ccc(Oc3ccc(F)cc3)c(CN3CCOCC3)c2)n1 [compound 98, 6-(4-(4-fluorophenoxy)-3-(morpholinomethyl)phenyl)picolin-amide]
28 | 0.578 ± 0.098 | CCN(CCN(C)C)Cc1cc(C(F)(F)F)ccc1Oc1ccc(-c2cccc(C(N)=O)n2)cc1 [compound 120, 6-(4-(2-(((2-(dimethylamino)ethyl)(ethyl)amino)methyl)-4-(trifluoromethyl)phenoxy)phenyl) picolinamide]
29 | 1.13 ± 0.11 | CCOCc1cc(-c2cccc(C(N)=O)n2)ccc1Oc1ccc(F)cc1 [compound 96, 6-(3-(ethoxymethyl)-4-(4-fluorophenoxy)phenyl) picolinamide]
30 | 0.55 ± 0.057 | NC(=O)c1cccc(-c2ccc(Oc3ccc(F)cc3)cc2F)n1 [compound 99, 6-(2-fluoro-4-(4-fluorophenoxy)-phenyl)picolinamide]
